Results reported in patent US20070148703A1, “Method of screening remedy for breast cancer” (Genomembrane, Inc., priority 2003, published 2007).
Values joined by “and” are separate entries in the source; they are usually repeats but may differ in a detail not shown here. Identical values can stand only once.

Legend:
Format in all cases: cell-based, human
[1] = tested on: T-47D cells; experiment: Inhibition of [3H] estrone-3-sulfate uptake by T-47D cells
Procedure: The cell suspension and a solution containing a radiolabeled test compound in the transport medium were separately incubated at 37° C. for 20 min, then transport was initiated by mixing them. […] Each cell pellet was solubilized in 3 N KOH, and neutralized with HCl. Then, the associated radioactivity was measured by means of a liquid scintillation counter using Clearsol-1 (Nacalai tesque) as a liquid scintillation fluid.
To characterize the substrate specificity of the transport system, the inhibitory effects of hormones, their conjugated metabolites, and various organic compounds on [^3H] estrone-3-sulfate uptake by T-47D cells were examined. The results are shown in (Table 1). In Table 1, values in control (%) are indicated as the ratio in comparison to uptake amount of estrone-3-sulfate in control which was set at 100%. Each value represents the mean±S.E.M. (n=4), and *P<0.05 indicates comparison to control (Student's test).

[2] = tested on: T-47D cells; experiment: Uptake of estrone-3-sulfate by T-47D cells (time course, cation and concentration dependence); settings: 5.1 nM to 50 μM, 37° C., 10 min, saturable uptake; mean±S.E.M.
Procedure: Cultured T-47D cells were incubated at 37° C. over 35 min in medium containing [^3H] estrone-3-sulfate (7.1 nM) with (open circles) or without (closed circles) 1 mM unlabeled estrone-3-sulfate. Each value represents the mean±S.E.M. (n=4). When the error bars are not shown, they are smaller than the symbols.
The uptake rate of [^3H] estrone-3-sulfate (7.1 nM) for 10 min was measured in the presence or absence of extracellular Na^+. Extracellular Na^+ was replaced with K^+, Li^+, or N-methylglucamine^+ (NMG^+). Each value represents the mean±S.E.M. (n=4).
The uptake of estrone-3-sulfate at various concentrations, ranging from 5.1 nM to 50 μM, was measured at 37° C. for 10 min. […]
Transport experiments were performed as described previously (Tamai et al., 2001). […] Then, the associated radioactivity was measured by means of a liquid scintillation counter using Clearsol-1 (Nacalai tesque) as a liquid scintillation fluid.
(§1) Cellular protein content was determined according to the method of Bradford by using a BioRad protein assay kit (Hercules) with bovine serum albumin as the standard (Bradford, 1976). […] All data were expressed as means±S.E.M., and statistical analysis was performed by the use of Student's t test with P<0.05 as the criterion of significance. […]

[3] = tested on: MCF-7 cells; experiment: MCF-7 cell proliferation with estrone-3-sulfate or estradiol, with or without BSP
Procedure: It was examined whether cell proliferation promoting effect on MCF-7 cells (ATCC-HTB22) by estrone-3-sulfate is inhibited by suppressing intracellular accumulation of estrone-3-sulfate. MCF-7 cells were seeded on a 96-well plate at a concentration of 8×10^4 cells/cm^2, and cultured for 1 day. Then, a medium containing estrone-3-sulfate (Sigma Chemicals) at various concentrations, ranging from 10 pM to 10 μM, and 100 μM of bromosulfophtalein (BSP: Sigma Chemicals), and a medium containing estradiol (Sigma Chemicals) at various concentrations, ranging from 1 pM to 10 nM, and 100 μM of BSP were added respectively, and culture was conducted for 3 more days. Subsequently, cell amount was measured.
However, this is considered to be estrogen activity by BSP itself or metabolite thereof. This effect decreased relatively with the increase of estrogen concentration. […] Accordingly, it is considered that the uptake of estrone-3-sulfate into the cells was inhibited by BSP, and that of estradiol, which is highly lipid-soluble, was not inhibited, and therefore there was no change in cell proliferation promoting effect.

[4] = tested on: T-47D cells; experiment: T-47D cell proliferation assay
Procedure: (a) T-47D cells were seeded at a density of 8,000 cells/well and cultured. 24 hours after seeding (day 1), estradiol (1 pM, closed triangles), estrone-3-sulfate (100 nM, closed circles), DMSO (0.1, open triangles) or water (open circles) was added. After the designated number of days, T-47D cells were trypsinized and counted.
(b) T-47D cells were proliferated in the presence of various concentrations of estradiol (closed triangles) or estrone-3-sulfate (closed circles), ranging from 10^−16 to 10^−11 M, or from 10^−11 to 10^−6 M, respectively. The cell numbers were counted at day 6 after seeding. Each value represents the mean±S.E.M. (n=3).
T-47D cells were routinely proliferated in RPMI 1640 medium (Sigma Chemicals) containing phenol red and 10% FCS in a humidified incubator at 37° C. and 5% CO2. For the proliferation assay, FCS was incubated with 0.5% dextran-coated charcoal (DCC) at 4° C. overnight, then the medium was decanted and DCC was filtered off (0.2 μm) to remove steroid hormones. This procedure was repeated three times. Then T-47D cells were seeded into 96-well plates at a density of 8,000 cells/well in phenol red-free RPMI 1640 medium containing 2.5% DCC-treated FCS. […] At designated days after seeding, the cells were treated with trypsin, and cell numbers were counted.

[5] = tested on: T-47D cells; experiment: Uptake of DHEAS by T-47D cells (time course, concentration dependence); settings: 10.3 nM to 100 μM, 37° C., 10 min, saturable uptake
Procedure: The uptake of DHEAS at various concentrations, ranging from 10.3 nM to 100 μM, was measured at 37° C. for 10 min. The saturable uptake was obtained after subtraction of the uptake in the presence of excess of unlabeled DHEAS (5 mM) and used for the evaluation of kinetic constants by nonlinear least-squares analysis. […] Each value represents the mean±S.E.M. (n=4). When the error bars are not shown, they are smaller than the symbols.
Transport experiments were performed as described previously (Tamai et al., 2001). After cultivation of T-47D cells in 15 cm dishes, the cells were harvested and suspended in the transport medium containing 125 mM NaCl, 4.8 mM KCl, 5.6 mM D-glucose, 1.2 mM CaCl2, 1.2 mM KH2PO4, 1.2 mM MgSO4 and 25 mM Hepes, adjusted to pH 7.4. […] Then, the associated radioactivity was measured by means of a liquid scintillation counter using Clearsol-1 (Nacalai tesque) as a liquid scintillation fluid.
as §1

[6] = inhibitor 100 μM, mean±S.E.M. (n=4)
[7] = inhibitor 1000 μM, mean±S.E.M. (n=4)
[8] = inhibitor 5 μM, mean±S.E.M. (n=4)
[9] = inhibitor 50 μM, mean±S.E.M. (n=4)

Row | Compound | inhibitory effect on [3H] estrone-3-sulfate uptake, in words ([1]; concentration not given) | [3H] estrone-3-sulfate uptake, Control (%) [1, 6] | [3H] estrone-3-sulfate uptake, Control (%) [1, 7] | [3H] estrone-3-sulfate uptake, Control (%) [1, 8] | [3H] estrone-3-sulfate uptake, Control (%) [1, 9] | further results
1 | O=C(O)c1ccccc1O [Salicylate] | no effect | 94.9 ± 6.0% | 82.7 ± 7.3% |  |  | 
2 | C[C@]12CC[C@@H]3c4ccc(OS(=O)(=O)O)cc4CC[C@H]3[C@@H]1CCC2=O [Estrone-3-sulfate] |  |  |  | 34.7 ± 4.3 * % | 6.6 ± 0.9 * % | Km [2]: 3.9 ± 0.78 µM; Vmax of estrone-3-sulfate uptake [2]: 576.3±32.9 pmol/mg protein/10 min; cell proliferation promoting effect on MCF-7 cells ([3]; estrogen only (positive control), 3 days): cell proliferation promoting effect was observed; proliferation of T-47D cells compared with solvent alone ([4]; 100 nM): stimulated; EC50 ([4]; 6 days after seeding, nonlinear regression analysis, read-out: median effective concentration (EC50), stimulation of T-47D proliferation): ~17.1 nM and 17.1 nM; [3H] estrone-3-sulfate uptake, Control (%) ([1]; inhibitor 5 μM, mean±S.E.M. (n=4), listed as estrone-3-sulfate): 34.7%; [3H] estrone-3-sulfate uptake, Control (%) ([1]; inhibitor 50 μM, mean±S.E.M. (n=4), listed as estrone-3-sulfate): 6.6%
3 | CC1(C)S[C@@H]2[C@H](NC(=O)Cc3ccccc3)C(=O)N2[C@H]1C(=O)O [Penicillin G] | slight inhibitory effects | 83.2 ± 2.0 * % | 75.9 ± 10.5% |  |  | 
4 | O=C1OC(c2ccc(O)c(S(=O)(=O)O)c2)(c2ccc(O)c(S(=O)(=O)O)c2)c2c(Br)c(Br)c(Br)c(Br)c21 [Bromosulfophtalein] |  | 18.9 ± 2.8 * % | 14.2 ± 1.2 * % |  |  | cell proliferation of MCF-7 cells with 100 μM BSP ([3]; 100 μM BSP added simultaneously, low estrone-3-sulfate concentration): cell proliferation promoting effect was observed; cell proliferation promoting effect by BSP ([3]; 100 μM BSP plus 10 μM estrone-3-sulfate): inhibited; cell proliferation promoting effect by BSP ([3]; 100 μM BSP plus estradiol): no change; [3H] estrone-3-sulfate uptake, Control (%) ([1]; inhibitor 100 μM, mean±S.E.M. (n=4), listed as bromosulfophthalein): 18.9%
5 | C[C@]12CC[C@@H]3c4ccc(O)cc4CC[C@H]3[C@@H]1CC[C@@H]2O[C@@H]1O[C@H](C(=O)O)[C@@H](O)[C@H](O)[C@H]1O [Estradiol-17β-glucuronide] |  |  |  | 73.8 ± 8.7% | 90.4 ± 11.5% | inhibitory effect on [3H] estrone-3-sulfate uptake, in words ([1]; 50 μM): no effect
6 | C[C@H](CCC(=O)NCCS(=O)(=O)O)[C@H]1CC[C@H]2[C@@H]3[C@H](O)C[C@@H]4C[C@H](O)CC[C@]4(C)[C@H]3C[C@H](O)[C@]12C [Taurocholic acid] |  | 69.3 ± 2.7 * % | 24.1 ± 2.3 * % |  |  | [3H] estrone-3-sulfate uptake, Control (%) ([1]; inhibitor 100 μM, mean±S.E.M. (n=4), listed as taurocholic acid): 69.3%
7 | Nc1ccc(C(=O)NCC(=O)O)cc1 [p-Aminohippuric acid] | no effect | 87.8 ± 1.5% | 112.7 ± 18.6% |  |  | 
8 | C[C@]12CC[C@@H]3c4ccc(O)cc4CC[C@H]3[C@@H]1CCC2=O [Estrone] |  |  |  | 78.8 ± 3.3 * % | 64.8 ± 7.5 * % | 
9 | Dehydroepiandrosterone sulfate |  |  |  | 66.4 ± 5.7 * % | 27.0 ± 7.6 * % | Km [5]: 62.5 ± 21.1 µM; Vmax of DHEAS uptake [5]: 1893±315.7 pmol/mg protein/10 min; [3H] estrone-3-sulfate uptake, Control (%) ([1]; inhibitor 50 μM, mean±S.E.M. (n=4), listed as DHEAS): 44.8%
10 | C[C@]12CC[C@H](O)CC1=CC[C@@H]1[C@@H]2CC[C@]2(C)C(=O)CC[C@@H]12 [Dehydroepiandrosterone] |  |  |  | 75.6 ± 3.8 * % | 44.8 ± 8.0 * % | 
11 | CCCN(CCC)S(=O)(=O)c1ccc(C(=O)O)cc1 [Probenecid] | slight inhibitory effects | 103.2 ± 10.2% | 79.1 ± 3.8 * % |  |  | 
12 | CC[N+](CC)(CC)CC [Tetraethylammonium] | no effect | 87.4 ± 1.5 * % | 112.7 ± 18.6% |  |  | 
13 | C[C@H]1O[C@@H](O[C@H]2[C@@H](O)C[C@H](O[C@H]3[C@@H](O)C[C@H](O[C@H]4CC[C@@]5(C)[C@H](CC[C@@H]6[C@@H]5C[C@@H](O)[C@]5(C)[C@@H](C7=CC(=O)OC7)CC[C@]65O)C4)O[C@@H]3C)O[C@@H]2C)C[C@H](O)[C@@H]1O [Digoxin] | no effect |  |  |  |  | [3H] estrone-3-sulfate uptake, Control (%) ([1]; inhibitor 100 μM, DMSO 1%, vs Control (DMSO 1%)): 90.3 ± 3.5%; [3H] estrone-3-sulfate uptake, Control (%) ([1]; inhibitor 1000 μM, DMSO 1%, vs Control (DMSO 1%)): 94.8 ± 4.4%
14 | C[C@]12CC[C@@H]3c4ccc(O)cc4CC[C@H]3[C@@H]1CC[C@@H]2O [Estradiol] |  |  |  | 76.9 ± 4.8 * % | 45.7 ± 5.3 * % | 
